Experimental data as given in patent publication US20260069571A1, “DDR1 AND DDR2 INHIBITORS FOR THE TREATEMENT OF CANCER AND FIBROTIC DISEASES” (REDX PHARMA PLC, priority 2021, published 2026).

Tests used:
Recombinant human DDR1 = Recombinant human DDR1 (Homo sapiens (Human), UniProt Q08345); experiment: LanthaScreen Eu Kinase Binding Assay, DDR1; settings: DDR1 2.5 nM (aa440-876, GST tag), Kinase Tracer 178 5 nM; for IC50: read-out: DDR1 pIC50 (converted)
Experimental: (§1) DDR1 and DDR2 Biochemical Assay Method
(§2) The capacity of compounds to bind to DDR1 and DDR2 was quantified using a LanthaScreen Eu Kinase Binding Assay. Recombinant human DDR1 (2.5 nM; aa440-876 containing a GST tag) and DDR2 (1.75 nM; aa427-855 containing a GST tag) were diluted in assay buffer (50 mM HEPES pH7.3, 10 mM MgCl2, 1 mM EGTA and 0.01% Tween) with various concentrations of compound in a 384-well plate and a volume of 5 uL. After a 30-minute incubation at room temperature, 2.5 uL of Eu-anti GST antibody (diluted to 1 nM in assay buffer) plus Kinase Tracer 178 (diluted in assay buffer to 5 nM for DDR1 and 10 nM for DDR2) were added to the plate. Following 60-minute incubation at room temperature, time-resolved fluorescence was measured on a BMG Labtech PHERAstar plate reader. DMSO (1%) and reference compound (1 μM) were used to generate the Max and Min assay signals, respectively. Data was analysed using a four-parameter logistic model to calculate IC50 values, with at least two independent replicates were performed for each compound.

Recombinant human DDR2 = Recombinant human DDR2 (Homo sapiens (Human), UniProt Q16832); experiment: LanthaScreen Eu Kinase Binding Assay, DDR2; settings: DDR2 1.75 nM (aa427-855, GST tag), Kinase Tracer 178 10 nM; for IC50: read-out: DDR2 pIC50 (converted)
Recombinant human DDR2, sequence (Q16832 427-855): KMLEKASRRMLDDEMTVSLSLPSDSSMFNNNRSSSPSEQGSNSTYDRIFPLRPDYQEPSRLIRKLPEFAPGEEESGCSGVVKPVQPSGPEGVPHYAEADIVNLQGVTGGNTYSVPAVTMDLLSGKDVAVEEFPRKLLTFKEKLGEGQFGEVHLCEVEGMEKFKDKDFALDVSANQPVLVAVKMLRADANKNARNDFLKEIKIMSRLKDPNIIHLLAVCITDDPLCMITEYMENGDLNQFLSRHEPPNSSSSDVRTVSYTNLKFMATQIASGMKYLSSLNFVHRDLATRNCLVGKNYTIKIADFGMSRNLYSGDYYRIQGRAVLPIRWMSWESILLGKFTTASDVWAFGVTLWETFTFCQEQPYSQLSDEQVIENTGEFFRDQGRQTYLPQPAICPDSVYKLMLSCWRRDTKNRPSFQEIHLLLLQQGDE
Experimental: as §1, §2

Recombinant human DDR1, sequence (Q08345 other isoform, or with tags, fused parts or gaps): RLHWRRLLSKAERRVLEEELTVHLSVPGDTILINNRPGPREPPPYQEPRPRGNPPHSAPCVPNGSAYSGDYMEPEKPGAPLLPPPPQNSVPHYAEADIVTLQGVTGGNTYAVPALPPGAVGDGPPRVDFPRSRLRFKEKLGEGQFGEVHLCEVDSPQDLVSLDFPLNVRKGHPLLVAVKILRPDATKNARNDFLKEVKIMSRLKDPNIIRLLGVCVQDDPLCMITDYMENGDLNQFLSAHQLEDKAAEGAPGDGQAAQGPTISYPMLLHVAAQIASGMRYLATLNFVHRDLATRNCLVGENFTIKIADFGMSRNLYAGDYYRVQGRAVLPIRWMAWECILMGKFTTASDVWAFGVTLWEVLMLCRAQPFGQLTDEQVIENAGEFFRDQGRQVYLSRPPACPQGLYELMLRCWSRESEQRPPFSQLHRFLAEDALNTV

Row | SMILES | IC50 (Recombinant human DDR1) [nM] | IC50 (Recombinant human DDR2) [nM] | DDR1 pIC50 (Recombinant human DDR1) | DDR2 pIC50 (Recombinant human DDR2)
1 | Cn1ncc2cc(Nc3cccc4c3C(=O)N(CC(=O)Nc3cccc(C(F)(F)F)c3)C4)cnc21 [Example 59, 2-[7-[(1-methylpyrazolo[3,4-b]pyridin-5-yl)amino]-1-oxo-isoindolin-2-yl]-N-[3-(trifluoromethyl)phenyl]acetamide] | 10 to 100 | 100 to 1000 | – | –
2 | N#Cc1cc(Nc2cccc3c2C(=O)N(CC(=O)NCC(F)(F)F)C3)cc2cn[nH]c12 [Example 60, 2-[7-[(7-cyano-1H-indazol-5-yl)amino]-1-oxo-isoindolin-2-yl]-N-(2,2,2-trifluoroethyl)acetamide] | – | – | A (pIC50>8) | A (pIC50>8)
3 | Cc1n[nH]c2nc(Nc3cccc4c3C(=O)N(CC(=O)NCC(F)(F)F)C4)ccc12 [Example 61, 2-[7-[(3-methyl-1H-pyrazolo[3,4-b]pyridin-6-yl)amino]-1-oxo-isoindolin-2-yl]-N-(2,2,2-trifluoroethyl)acetamide] | 100 to 1000 | – | – | D (pIC50≤6)
4 | Cc1n[nH]c2cc(Nc3cccc4c3C(=O)N(CC(=O)NCC(F)(F)F)C4)cc(F)c12 [Example 62, 2-[7-[(4-fluoro-3-methyl-1H-indazol-6-yl)amino]-1-oxo-isoindolin-2-yl]-N-(2,2,2-trifluoroethyl)acetamide] | – | – | A (pIC50>8) | A (pIC50>8)
5 | Cc1n[nH]c2cc(Nc3cccc4c3C(=O)N(CC(=O)N[C@@H](C)C(F)(F)F)C4)cc(F)c12 [Example 63, 2-[7-[(4-fluoro-3-methyl-1H-indazol-6-yl)amino]-1-oxo-isoindolin-2-yl]-N-[(1S)-2,2,2-trifluoro-1-methyl-ethyl]acetamide] | – | – | A (pIC50>8) | A (pIC50>8)
6 | Cc1n[nH]c2cc(Nc3cccc4c3C(=O)N(CC(=O)N3CCC[C@H]3C(F)(F)F)C4)cc(F)c12 [Example 64, 7-[(4-fluoro-3-methyl-1H-indazol-6-yl)amino]-2-[2-oxo-2-[(2S)-(trifluoromethyl)pyrrolidin-1-yl]ethyl]isoindolin-1-one] | < 10 | < 10 | – | –
7 | Cc1n[nH]c2cc(Nc3cccc4c3C(=O)N(CC(=O)Nc3cnoc3)C4)cc(F)c12 [Example 65, 2-[7-[(4-fluoro-3-methyl-1H-indazol-6-yl)amino]-1-oxo-isoindolin-2-yl]-N-isoxazol-4-yl-acetamide] | 100 to 1000 | – | – | D (pIC50≤6)
8 | Cc1n[nH]c2cc(Nc3cccc4c3C(=O)N(CC(=O)N[C@@H](C)C(F)(F)F)C4)cnc12 [Example 66, 2-[7-[(3-methyl-1H-pyrazolo[4,3-b]pyridin-6-yl)amino]-1-oxo-isoindolin-2-yl]-N-[(1S)-2,2,2-trifluoro-1-methyl-ethyl]acetamide] | – | – | A (pIC50>8) | A (pIC50>8)
9 | Cc1n[nH]c2cc(Nc3cccc4c3C(=O)N(CC(=O)N3CCC[C@H]3C(F)(F)F)C4)cnc12 [Example 67, 7-[(3-methyl-1H-pyrazolo[4,3-b]pyridin-6-yl)amino]-2-[2-oxo-2-[(2S)-(trifluoromethyl)pyrrolidin-1-yl]ethyl]isoindolin-1-one] | < 10 | < 10 | – | –
10 | Cc1n[nH]c2cc(Nc3cccc4c3C(=O)N(CC(=O)N3CCO[C@@H](C(F)(F)F)C3)C4)cnc12 [Example 68, 7-[(3-methyl-1H-pyrazolo[4,3-b]pyridin-6-yl)amino]-2-[2-oxo-2-[(2R)-(trifluoromethyl)morpholin-4-yl]ethyl]isoindolin-1-one] | 10 to 100 | 100 to 1000 | – | –
11 | Cc1n[nH]c2cc(Nc3cccc4c3C(=O)N(CC(=O)N3CCO[C@H](C(F)(F)F)C3)C4)cnc12 [Example 69, 7-[(3-methyl-1H-pyrazolo[4,3-b]pyridin-6-yl)amino]-2-[2-oxo-2-[(2S)-(trifluoromethyl)morpholin-4-yl]ethyl]isoindolin-1-one] | 10 to 100 | 100 to 1000 | – | –
12 | Cc1n[nH]c2cc(Nc3cccc4c3C(=O)N(CC(=O)N3CCOC[C@H]3C(F)(F)F)C4)cnc12 [Example 70, 7-[(3-methyl-1H-pyrazolo[4,3-b]pyridin-6-yl)amino]-2-[2-oxo-2-[(3S)-(trifluoromethyl)morpholin-4-yl]ethyl]isoindolin-1-one] | 100 to 1000 | ≥ 1000 | – | –
13 | Cc1n[nH]c2cc(Nc3cccc4c3C(=O)N(CC(=O)N3CCOC[C@@H]3C(F)(F)F)C4)cnc12 [Example 71, 7-[(3-methyl-1H-pyrazolo[4,3-b]pyridin-6-yl)amino]-2-[2-oxo-2-[(3R)-(trifluoromethyl)morpholin-4-yl]ethyl]isoindolin-1-one] | 10 to 100 | 10 to 100 | – | –

More lines, now with the values ahead:

Row | IC50 (Recombinant human DDR1) [nM] | IC50 (Recombinant human DDR2) [nM] | DDR1 pIC50 (Recombinant human DDR1) | DDR2 pIC50 (Recombinant human DDR2) | SMILES
14 | < 10 | 10 to 100 | – | – | C[C@H](NC(=O)CN1Cc2cccc(Nc3cnc4[nH]ncc4c3)c2C1=O)C(F)(F)F [Example 73, 2-[1-oxo-7-(1H-pyrazolo[3,4-b]pyridin-5-ylamino)isoindolin-2-yl]-N-[(1S)-2,2,2-trifluoro-1-methyl-ethyl]acetamide]
15 | < 10 | < 10 | – | – | O=C1c2c(cccc2Nc2cnc3[nH]ncc3c2)CN1CC(=O)N1CCC[C@H]1C(F)(F)F [Example 74, 2-[2-oxo-2-[(2S)-(trifluoromethyl)pyrrolidin-1-yl]ethyl]-7-(1H-pyrazolo[3,4-b]pyridin-5-ylamino)isoindolin-1-one]
16 | 10 to 100 | 100 to 1000 | – | – | O=C(CN1Cc2cccc(Nc3cnc4[nH]ncc4c3)c2C1=O)NC1CC1(F)F (stereo not drawn) [Example 75, N-(2,2-difluorocyclopropyl)-2-[1-oxo-7-(1H-pyrazolo[3,4-b]pyridin-5-ylamino)isoindolin-2-yl]acetamide]
17 | 10 to 100 | 10 to 100 | – | – | CN(CC(F)(F)F)C(=O)CN1Cc2cccc(Nc3cnc4[nH]ncc4c3)c2C1=O [Example 76, N-methyl-2-[1-oxo-7-(1H-pyrazolo[3,4-b]pyridin-5-ylamino)isoindolin-2-yl]-N-(2,2,2-trifluoroethyl)acetamide]
18 | 10 to 100 | 10 to 100 | – | – | C[C@H](N(C)C(=O)CN1Cc2cccc(Nc3cnc4[nH]ncc4c3)c2C1=O)C(F)(F)F [Example 77, N-methyl-2-[1-oxo-7-(1H-pyrazolo[3,4-b]pyridin-5-ylamino)isoindolin-2-yl]-N-[(1S)-2,2,2-trifluoro-1-methyl-ethyl]acetamide]
19 | 10 to 100 | 100 to 1000 | – | – | Cc1n[nH]c2cc(N(C)c3cccc4c3C(=O)N(CC(=O)NCC(F)(F)F)C4)ccc12 [Example 78, 2-[7-[methyl-(3-methyl-1H-indazol-6-yl)amino]-1-oxo-isoindolin-2-yl]-N-(2,2,2-trifluoroethyl)acetamide]
20 | 10 to 100 | – | – | D (pIC50≤6) | Cn1ncc2cc(Nc3cccc4c3C(=O)N(CC(=O)NCC(F)(F)F)C4(F)F)ccc21 [Example 79, 2-[1,1-difluoro-4-[(1-methylindazol-5-yl)amino]-3-oxo-isoindolin-2-yl]-N-(2,2,2-trifluoroethyl)acetamide]
21 | 100 to 1000 | 100 to 1000 | – | – | CC(C)c1n[nH]c2cc(Nc3cccc4c3C(=O)N(CC(=O)NCC(F)(F)F)C4)ccc12 [Example 80, 2-[7-[(3-isopropyl-1H-indazol-6-yl)amino]-1-oxo-isoindolin-2-yl]-N-(2,2,2-trifluoroethyl)acetamide]
22 | 10 to 100 | 100 to 1000 | – | – | O=C(CN1Cc2cccc(Nc3ccc4cn[nH]c4c3)c2C1=O)NCC(F)(F)F [Example 81, 2-[7-(1H-indazol-6-ylamino)-1-oxo-isoindolin-2-yl]-N-(2,2,2-trifluoroethyl)acetamide]
23 | 10 to 100 | ≥ 1000 | – | – | N#Cc1n[nH]c2ccc(Nc3cccc4c3C(=O)N(CC(=O)N3CCC[C@H]3C(F)(F)F)C4)cc12 [Example 82, 5-[[3-oxo-2-[2-oxo-2-[(2S)-(trifluoromethyl)pyrrolidin-1-yl]ethyl]isoindolin-4-yl]amino]-1H-indazole-3-carbonitrile]
24 | 10 to 100 | 10 to 100 | – | – | O=C1c2c(cccc2Nc2ccc3[nH]nc(F)c3c2)CN1CC(=O)N1CCC[C@H]1C(F)(F)F [Example 83, 7-[(3-fluoro-1H-indazol-5-yl)amino]-2-[2-oxo-2-[(2S)-(trifluoromethyl)pyrrolidin-1-yl]ethyl]isoindolin-1-one]
25 | 10 to 100 | 100 to 1000 | – | – | O=C1c2c(cccc2Nc2ccc3[nH]ncc3n2)CN1CC(=O)N1CCC[C@H]1C(F)(F)F [Example 84, 2-[2-oxo-2-[(2S)-(trifluoromethyl)pyrrolidin-1-yl]ethyl]-7-(1H-pyrazolo[4,3-b]pyridin-5-ylamino)isoindolin-1-one]
26 | 10 to 100 | 10 to 100 | – | – | Cn1ncc2nc(Nc3cccc4c3C(=O)N(CC(=O)N3CCC[C@H]3C(F)(F)F)C4)ccc21 [Example 85, 7-[(1-methylpyrazolo[4,3-b]pyridin-5-yl)amino]-2-[2-oxo-2-[(2S)-(trifluoromethyl)pyrrolidin-1-yl]ethyl]isoindolin-1-one]
27 | 10 to 100 | 10 to 100 | – | – | CN(c1ccc2[nH]nc(C#N)c2c1)c1cccc2c1C(=O)N(CC(=O)N1CCC[C@H]1C(F)(F)F)C2 [Example 86, 5-[methyl-[3-oxo-2-[2-oxo-2-[(2S)-(trifluoromethyl)pyrrolidin-1-yl]ethyl]isoindolin-4-yl]amino]-1H-indazole-3-carbonitrile]
